Earlier results in patent publication US20050182026A1, “Use of phospholipids in peritoneal dialysis” (priority 2002, published 2005).

What was measured:
[1] = tested on: respiratory distress syndrome; settings: various physical forms, used for two decades in newborns

CCCCCCCCCCCCCCCC(=O)OC[C@H](COP(=O)([O-])OCC[N+](C)(C)C)OC(=O)CCCCCCCCCCCCCCC [DPPC, dipalmitoylphosphatidylcholine]
solubility in water: highly insoluble in water
critical micelle concentration (in water): 5×10^−10 Molar
safety in clinical use [1]: complete safety
